Values joined by “and” are separate entries in the source; they are usually repeats but may differ in a detail not shown here. Equal values may be shown once.
Legend:
[1] = test system: Retzius cells (leech neurons); conditions: cited from earlier work; for shift of the excitation spectrum per membrane voltage: Kuhn and Fromherz, 2003
[2] = Maximal theoretical sensitivity for excitation in the Boltzmann tail; conditions: from shift of 1.6 cm^−1/mV
Description: A common approximation used for spectral shapes is the log-normal function (Siano and Metzler, 1969), which would imply an ever increasing, in fact, diverging sensitivity toward longer wavelengths and the vanishing of excitation above a wavelength of 591 nm. However, simple considerations predict a tail in the absorption spectrum F that follows a Boltzmann distribution (Hinshelwood, 1940)
because an electronic transition between the ground and the excited state with the energy difference h ν00c (h Planck constant, ν00 wavenumber of the 00 transition, c light velocity) and an excitation energy h νc ( ν wavenumber of excitation), which is assumed to be below h ν00c, requires additional vibrational energy E=h ν00c−h νc to reach the lowest excited state, in analogy to anti-Stokes lines in scattering theory. […]
for excitation in the Boltzmann tail (Δμ is the intramolecular charge displacement upon electronic excitation, d is the membrane thickness, θ is the angle between charge displacement and membrane normal). […] For comparison: the highest measured sensitivity value was −0.52±0.05%/mV (with 2-photon excitation at 1040 nm, corresponding to 520 nm). […]

[3] = test system: HEK293 cells; test: Example 4: HEK293 cells stained by bath application, alternating external electric fields, 1 kHz line scans; format: cell-based
Description: ANNINE-6 is a new, completely anellated hemicyanine dye. […] Several biological preparations were used for testing. First, HEK293 cells were stained by bath application of the dye. Alternating external electric fields generated by applying voltages between two Ag/AgCl-wires in a closed chamber (1). To achieve the high light intensities, which are necessary to excite the dye at the very red edge of the excitation spectrum, we used laser scanning microscopes with Ar-Ion Laser for one-photon excitation (488 nm, 514 nm) and Ti:Sapphire Laser for two-photon excitation (976 nm). The fluorescence changes measured with 1 kHz line scans followed the applied voltage, which was alternated every 10 ms, without discernible delay. We found relative fluorescence increases of more that 60%/100 mV for hyperpolarizing membrane potential changes and decreases of more than 40%/100 mV for depolarizing membrane potential changes at 514 nm excitation wavelength. The asymmetry of the fluorescence change is expected given the spectral shape and a pure electrochromic spectral shift. We found changes of +40%/100 mV and −30%/100 mV both for one-photon excitation at 488 nm and two-photon excitation at 976 nm. Preliminary measurements from cultured hippocampal slices using a soluble variant of ANNINE-6 show fast fluorescence changes of up to 8% upon stimulation of the Schaffer collaterals in CA1. • (1) D. Gross, L. M. Loew and W. Webb. Biophys. J., 50: 339-348, 1986.

[4] = test system: HEK293 cells; test: Tight-seal whole-cell voltage-clamp recordings of HEK293 cells, sensitivity at 514 nm; format: cell-based; conditions: four cells, voltage jumps +/−25, +/−50, +/−75 mV
Method: Whole-cell tight-seal voltage-clamp recordings on HEK293 cells were preformed using pipettes with a resistance of around 6 MOhm and an epc9 amplifier (HEKA, Göttingen, Germany).
To test our assumption about the extracellular stimulation the sensitivity at 514 nm was tested by controlling the membrane voltage directly using tight-seal whole-cell recordings of HEK293 cells (FIG. 22). The mean sensitivity measured in four cells using voltage jumps of +/−25, +/−50 and +/−75 mV is −0.37±0.02%/mV, in agreement with the results achieved by the external electric field method.

[5] = test system: HEK293 cells; test: Voltage sensitivity in HEK293 cells by extracellular electric field, laser line scans with one- or two-photon excitation; format: cell-based
Method: HEK293 cells (DSMZ GmbH, Braunschweig, Germany) were cultured using standard methods on glass coverslips (diameter 24 mm, Assistent, Glaswarenfabrik Karl Hecht KG, Sondheim, Germany). The coverslips were coated with fibronectin (No. 68885, Boehringer-Mannheim, Germany) in PBS (140 mM NaCl, 2.7 mM KCl, 1.5 mM KH2PO4, 6.5 mM Na2HPO4×2H2O) by incubation for 45 min in a 10 μg/ml fibronectin solution and a single subsequent wash with PBS. The cells were plated at densities of 15000 cells per coverslip and were used for up to three days after plating, while the cell density was still low. All measurements were done in a Ringer solution containing (in mM) 135 NaCl, 5.4 KCl, 1.0 MgCl2, 1.8 CaCl2 and 5.0 Hepes, adjusted to pH 7.2 with NaOH.
ANNINE-6 (FIG. 19a) was dissolved in a solution of 20% Pluronic F-127 DMSO (P-3000, Molecular Probes, Eugene, Oreg.) at a concentration of 0.5 mg/ml and sonicated for 15 min. The glass coverslip with the HEK293 cells was taken out of the culture well, exposed to the staining solution (dye stock solution diluted 1:100 into Ringer) for 5 min and finally washed with pure Ringer solution.
To change the voltage across the cell membrane we applied an extracellular electric field. This method (Gross et al., 1986) has a somewhat reduced voltage calibration accuracy but is much simpler than whole-cell recordings, for example, permitting the transfer of the recording chamber between microscope setups thereby allowing the exploration of a wider parameter range. Our custom-made chamber (FIG. 19b) consists of a 2.6 mm wide, and 30 mm long slit in a 0.5 mm thick PMMA (Plexiglas) plate. Two chlorided silver wires (diameter 0.127 mm, Cat. No. 7860, A-M Systems, INC., Everett, Wash.) for the application of the electrical field were fixed to the long edges of the channel with two-component epoxy resin glue (plus sofortfest, UHU, Bühl, Germany). This chamber was sealed on the bottom with a clean coverslip (24 mm×50 mm) attached with silicone grease (Bayer-silicone, Bayer AG, Leverkusen, Germany). The coverslip with the stained HEK293 cells was dried around the edges to get a watertight seal with silicone grease and then mounted cells down on the top side of the chamber. Two openings allowed the continuous perfusion (about 2 ml/min) with physiological saline using a gravity-fed perfusion system.
The voltage stimuli were generated by an arbitrary waveform generator (model 395, wavetek, Ismaning, Germany) and amplified by a custom-built push-pull circuit (using two operational amplifiers, OPA547, Texas Instruments Inc., Texas, USA, FIG. 19c). To avoid electrolysis at the electrodes and ionophoresis of cell-surface components all applied voltage waveforms were purely AC. Short pulses were used to minimize heating (FIG. 19d). The application of the pulse protocol was synchronized to the start of line scan acquisition.
For one-photon excitation we used laser scanning microscopes (Zeiss LSM 510 NLO and Leica TCS SP2) with Ar-ion laser excitation (458 nm, 488 nm, or 514 nm). We used laser illumination instead of, for example, Xe arc-lamps because narrow spectral width and high intensities are needed to obtain sufficient excitation of the dye at the spectral edge. The excitation light at the Zeiss microscope was coupled in via the main dichroic beam splitters (HFT 458/514, reflecting the 458 nm and 514 nm laser lines or HFT KP 700/488, a combined 700 nm short pass and 488 nm reflector). The emitted light was filtered by a long-pass filter (LP560). The Leica microscope uses an acousto-optical main beam splitter and fluorescence was collected in the range of 520 nm to 800 nm. The maximal excitation intensities at the sample were for the Zeiss (Leica) microscope: 1.3 mW (1.5 mW) at 514 nm, 200 μW (250 μW) at 488 nm and 28 μW (35 μW) at 458 nm. The pinhole was completely opened up (8.5 airy units) to collect as much light as possible. […]

CCCCN(CCCC)c1ccc2c(ccc3c2ccc2c4cc[n+](CCCCS(=O)(=O)[O-])cc4ccc23)c1 [ANNINE-5]
shift of the excitation spectrum per membrane voltage [1]: 1.3 cm^−1/mV

CCCCN(CCCC)c1ccc2c(ccc3c2ccc2c4ccc5c[n+](CCCCS(=O)(=O)[O-])ccc5c4ccc32)c1 [ANNINE-6]
Boltzmann-tail sensitivity (theoretical limit) [2]: −0.77 %/mV
sensitivity in Leech ([1]; 488 nm, published (Kuhn and Fromherz, 2003)): −0.29 %/mV
shift of the excitation spectrum per membrane voltage [1]: 1.6 cm^−1/mV
relative fluorescence decrease ([3]; depolarizing membrane potential changes, 514 nm): more than 40 %/100 mV
relative fluorescence increase ([3]; hyperpolarizing membrane potential changes, 514 nm): > 60 %/100 mV
relative fluorescence change, negative ([3]; one-photon excitation 488 nm): −30 %/100 mV
relative fluorescence change, positive ([3]; one-photon excitation 488 nm): +40 %/100 mV
relative fluorescence change, negative ([3]; two-photon excitation 976 nm): −30 %/100 mV
relative fluorescence change, positive ([3]; two-photon excitation 976 nm): +40 %/100 mV
mean sensitivity with direct control of membrane voltage [4]: −0.37±0.02 %/mV
fluorescence change for large voltage swing ([5]; 100 mV depolarization, 514 nm): −28%
fluorescence change for large voltage swing ([5]; 100 mV depolarization, 1040 nm): −40%
fluorescence change for large voltage swing ([5]; 100 mV hyperpolarization, 514 nm): 50%
fluorescence change for large voltage swing ([5]; 100 mV hyperpolarization, 1040 nm): 70%
sensitivity ([5]; 515 nm, 1-photon, dye incorporated inside the cells (as expected)): 0.37 %/mV
sensitivity ([5]; 515 nm, 2-photon, dye incorporated inside the cells (as expected)): 0.52 %/mV
2PE sensitivity higher than 1PE sensitivity at half the wavelength ([5]; 976 nm versus 488 nm, same cell): about 20%
sensitivity at end of repeated line scans ([5]; after 900 line scans at 1040 nm over a period of over 2 h): −0.58±0.02 %/mV
slope sensitivity at the resting potential, single cell ([5]; cell of FIG. 21a, one-photon 458 nm): −0.16 %/mV
slope sensitivity at the resting potential, single cell ([5]; cell of FIG. 21a, one-photon 488 nm): −0.26 %/mV
slope sensitivity at the resting potential, single cell ([5]; cell of FIG. 21a, one-photon 514 nm): −0.37 %/mV
slope sensitivity at the resting potential, single cell ([5]; cell of FIG. 23, two-photon 960 nm): −0.35 %/mV
slope sensitivity at the resting potential, single cell ([5]; cell of FIG. 23, two-photon 980 nm): −0.41 %/mV
slope sensitivity at the resting potential, single cell ([5]; cell of FIG. 23, two-photon 1000 nm): −0.49 %/mV
slope sensitivity at the resting potential, single cell ([5]; cell of FIG. 23, two-photon 1020 nm): −0.54 %/mV
slope sensitivity at the resting potential, single cell ([5]; cell of FIG. 23, two-photon 1040 nm): −0.59 %/mV
sensitivity ([5]; excitation wavelength 515 nm, 1-photon, dye at the outer side of the membrane): −0.37 %/mV
small-signal fractional fluorescence change (mean sensitivity) ([5]; one-photon excitation 488 nm, four cells): −0.28 %/mV and −0.28±0.03 %/mV
small-signal fractional fluorescence change (mean sensitivity) ([5]; one-photon excitation 514 nm, four cells): −0.35 %/mV and −0.35±0.03 %/mV
sensitivity at begin of repeated line scans ([5]; single cell, excitation at 1040 nm): −0.59±0.01 %/mV
small-signal fractional fluorescence change (mean sensitivity) ([5]; two-photon excitation 960 nm, 4 cells): −0.29 %/mV and −0.29±0.05 %/mV
mean sensitivity ([5]; two-photon excitation 980 nm, 4 cells): −0.35±0.05 %/mV
small-signal fractional fluorescence change (mean sensitivity) ([5]; two-photon excitation 1000 nm, 4 cells): −0.43 %/mV and −0.43±0.05 %/mV
mean sensitivity ([5]; two-photon excitation 1020 nm, 4 cells): −0.47±0.06 %/mV
small-signal fractional fluorescence change (mean sensitivity) ([5]; two-photon excitation 1040 nm, 4 cells): −0.52 %/mV and −0.52±0.06 %/mV and −0.52±0.05 %/mV

CCCCCN(CCCCC)c1ccc(/C=C/C=C/c2cc[n+](CCCCS(=O)(=O)[O-])cc2)cc1 [RH-421, reference compound]
shift of the excitation spectrum per membrane voltage [1]: 0.5 cm^−1/mV

CCCCN(CCCC)c1ccc2cc(C=Cc3cc[n+](CCCCS(=O)(=O)[O-])cc3)ccc2c1 [di-4-ANEPBS, reference compound]
shift of the excitation spectrum per membrane voltage [1]: 0.9 cm^−1/mV
